The source of these data is patent US10239887B2, “Positive allosteric modulators of the muscarinic acetylcholine receptor M4” (Vanderbilt University, priority 2016, dated 2019).

One data set deals with T1, Human M2 (Homo sapiens, UniProt P08172).
T1 sequence (P08172 1-466): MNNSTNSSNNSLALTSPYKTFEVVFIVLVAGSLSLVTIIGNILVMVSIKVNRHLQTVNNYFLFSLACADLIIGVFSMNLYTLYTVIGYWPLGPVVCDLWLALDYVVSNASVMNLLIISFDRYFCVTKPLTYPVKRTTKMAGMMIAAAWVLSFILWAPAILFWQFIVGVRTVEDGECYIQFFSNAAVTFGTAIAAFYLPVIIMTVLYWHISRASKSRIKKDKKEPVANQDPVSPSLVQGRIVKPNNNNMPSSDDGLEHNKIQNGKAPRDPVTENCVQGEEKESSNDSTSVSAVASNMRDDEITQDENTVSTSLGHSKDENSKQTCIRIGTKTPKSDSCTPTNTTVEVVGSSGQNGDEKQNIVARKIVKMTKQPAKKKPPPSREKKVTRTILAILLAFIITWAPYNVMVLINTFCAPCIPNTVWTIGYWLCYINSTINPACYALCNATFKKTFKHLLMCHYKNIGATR
The experiment in a line: analogous cell-based functional assay using human M2.

Data set [1] concerns 68 primary molecular targets. The data set is described as follows: Eurofins LeadProfilingScreen (binding). As to conditions: 10 μM (binding); all targets except human adenosine A2a.
In another data set the test system is bacterial. The experiment in a line: bacterial cytotoxicity assay. Type of data set: cell-based. To be noted: 0.6-100 μM.
Data set [2] is described as follows: fraction unbound in plasma, dog. It is filed as in vitro ADME. As to conditions: read-out: Dog Fu (plasma). The method, then: (§1) Compound 76 was in several in vitro assays to investigate both metabolism and pharmacokinetics. These assays were performed according to known methods as generally described in the following references: Conde-Ceide et al. ACS Med. Chem. Lett. 2015, 6, 716-720; Morris et al. J. Med. Chem. 2014, 57, 10192-10197; and Bubser et al. ACS Chem. Neurosci. 2014, 5, 920-942.

A short description of a further data set: intrinsic clearance, rat. It is filed as in vitro ADME. As for the experimental part:
as §1

Data set [3] can be described thus: intrinsic clearance, cyno. It is filed as in vitro ADME. To be noted: cynomolgus monkey. As for the experimental part:
as §1

The next data set deals with P450 2D6 (Homo sapiens, UniProt P10635). The data set is described as follows: P450 2D6 inhibition. It is filed as in vitro ADME. As for the experimental part: as §1
P450 2D6, sequence (P10635 whole entry): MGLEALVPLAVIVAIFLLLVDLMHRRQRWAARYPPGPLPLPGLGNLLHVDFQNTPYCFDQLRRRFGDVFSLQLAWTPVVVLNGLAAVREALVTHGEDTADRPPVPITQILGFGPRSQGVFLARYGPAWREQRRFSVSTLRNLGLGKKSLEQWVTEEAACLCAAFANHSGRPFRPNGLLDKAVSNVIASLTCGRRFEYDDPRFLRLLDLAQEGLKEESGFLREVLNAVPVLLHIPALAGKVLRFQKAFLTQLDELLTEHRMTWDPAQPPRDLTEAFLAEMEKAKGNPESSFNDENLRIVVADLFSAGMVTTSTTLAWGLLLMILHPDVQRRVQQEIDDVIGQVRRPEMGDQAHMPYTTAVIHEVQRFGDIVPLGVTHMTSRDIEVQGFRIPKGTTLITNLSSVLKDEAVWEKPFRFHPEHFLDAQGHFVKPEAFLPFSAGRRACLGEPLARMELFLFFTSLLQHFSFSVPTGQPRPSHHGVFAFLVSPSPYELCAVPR
The next data set concerns the target T2, P450 1A2 (Homo sapiens, UniProt P05177).
T2 sequence (P05177 1-516): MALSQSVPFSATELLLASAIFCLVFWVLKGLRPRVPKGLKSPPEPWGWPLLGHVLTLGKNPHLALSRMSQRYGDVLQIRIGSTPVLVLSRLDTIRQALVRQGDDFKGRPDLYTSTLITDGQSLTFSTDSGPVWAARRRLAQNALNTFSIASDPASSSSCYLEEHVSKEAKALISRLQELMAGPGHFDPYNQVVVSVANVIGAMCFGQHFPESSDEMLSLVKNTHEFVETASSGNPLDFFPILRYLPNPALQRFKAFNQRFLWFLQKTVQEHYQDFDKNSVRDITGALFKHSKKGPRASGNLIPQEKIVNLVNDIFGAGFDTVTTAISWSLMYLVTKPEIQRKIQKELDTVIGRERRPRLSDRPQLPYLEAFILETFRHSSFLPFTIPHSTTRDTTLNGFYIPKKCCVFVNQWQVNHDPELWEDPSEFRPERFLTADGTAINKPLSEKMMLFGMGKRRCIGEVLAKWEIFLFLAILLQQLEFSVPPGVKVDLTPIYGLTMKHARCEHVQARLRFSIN
The data set is described as follows: P450 1A2 inhibition. Type of data set: in vitro ADME. As for the experimental part: as §1

A short description of data set [4]: in vivo. To be noted: rat.
Data set [5] is described as follows: in vivo. To be noted: dog, plasma.
A short description of another data set: in vivo DMPK, rat. As to conditions: 3 mg/kg.
For data set [6], the system named is four strains of Salmonella. The experiment in a line: Eurofins Ames Test. As to conditions: 5-100 μM.
Another data set concerns the target T3, rat mAChR M4 (Rattus norvegicus, UniProt P08485).
T3 sequence (P08485 1-478): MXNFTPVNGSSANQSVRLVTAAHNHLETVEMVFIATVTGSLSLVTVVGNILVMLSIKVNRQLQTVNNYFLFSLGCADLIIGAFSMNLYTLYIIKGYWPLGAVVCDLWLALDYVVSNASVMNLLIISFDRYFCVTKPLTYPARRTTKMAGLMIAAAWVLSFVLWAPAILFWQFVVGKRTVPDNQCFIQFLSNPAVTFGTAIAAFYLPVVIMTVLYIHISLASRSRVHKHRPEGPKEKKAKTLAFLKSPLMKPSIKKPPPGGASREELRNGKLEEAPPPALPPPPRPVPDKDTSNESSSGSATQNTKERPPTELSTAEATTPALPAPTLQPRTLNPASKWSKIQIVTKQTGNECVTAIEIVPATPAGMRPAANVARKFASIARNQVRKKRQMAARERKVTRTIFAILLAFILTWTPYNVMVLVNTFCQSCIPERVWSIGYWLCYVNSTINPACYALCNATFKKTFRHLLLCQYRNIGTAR
The experiment in a line: mAChR M4 cell-based functional assay (calcium flux), rat M4. Also on record: Emax: dose or concentration left out as unconfirmed. (Calcium flux is commonly read through the fluorescence of an indicator in the cells.)

`Cc1nnc2sc3c(NCc4ccc(C(C)(C)O)cc4)ncnc3c2c1C` [Compound 76, 2-[4-[[(3,4-Dimethylpyrimido[4′,5′:4,5]thieno[2,3-c]pyridazin-8-yl)amino]methyl]phenyl]propan-2-ol]: the Emax (commonly the maximal effect, on the per cent scale that the assay sets) was found to be 48% on Human M2 (Human M2) and 77% on rat mAChR M4. The half-maximal effective concentration (EC50) (in general, the concentration at which the effect is half-maximal) on Human M2 (analogous assay using human M2) was determined as 2.8 µM. Besides, the “inhibition of each target in the LeadProfilingScreen” value in [1] is recorded as less than 50%. Moreover, in the data set on bacterial, the bacterial cytotoxicity result is on record as “clean”. Further, the fraction unbound in [2] is 0.057. Also, the intrinsic clearance (CLint scaled) (usually the rate of metabolic loss divided by the concentration) stood at 87 mL/min/kg in the data set “intrinsic clearance, rat” and 102 mL/min/kg in [3]. In addition, the half-inhibitory concentration (IC50) against P450 2D6 and on P450 1A2 was greater than 30 µM each time. The Kp in the data set “in vivo [4]” (brain) is 0.31. Also, the figures for the Vd in the data set “in vivo [4]” (plasma) and in “in vivo [5]” were 1 L/kg and 1.4 L/kg, respectively. Besides, the results for the clearance in the data set “in vivo [4]” (plasma) and in “in vivo [5]” were 4.4 mL/min/kg and 4.7 mL/min/kg, respectively. Besides, the half-life – broadly, the time needed for the level to fall by half in the phase considered – in the data set “in vivo [4]” (plasma) was 3 h; in “in vivo [5]”, 4.2 h. Also, the “Rat oral F” value in the data set “in vivo DMPK, rat” is on record as greater than 100%. Besides, in [6], the Ames test result was “clean”. The “Cyno oral F” value in “in vivo DMPK, cyno” (3 mg/kg) was found to be 44%. Further, the “Cyno CSF: plasma Kp” value in the data set “in vivo DMPK, cyno” (cynomolgus monkey, in vivo) is listed as 0.01. Moreover, in the data set “in vivo DMPK, cyno” (cynomolgus monkey, in vivo), the “Cyno CSF: plasma Kp, u” value amounted to 1.1.
